PubChem BioAssay AID1259407 (Chemical Carcinogenesis Research Information System (CCRIS), 2018)
Active and inactive are the calls of the source. The rule behind the calls is not given here.

System: CCRIS mutagenicity, Ames/micronucleus/aberration tests
Assay: CCRIS mutagenicity studies
[1] = Test System: AMES SALMONELLA TYPHIMURIUM, Strain/Indicator: TA98, Metabolic Activation: NONE, Method: PREINCUBATION
[2] = Test System: AMES SALMONELLA TYPHIMURIUM, Strain/Indicator: TA100, Metabolic Activation: HAMSTER, LIVER, S-9, AROCLOR 1254 (10%), Method: PREINCUBATION
[3] = Test System: AMES SALMONELLA TYPHIMURIUM, Strain/Indicator: TA100, Metabolic Activation: NONE, Method: PREINCUBATION
[4] = Test System: AMES SALMONELLA TYPHIMURIUM, Strain/Indicator: TA100, Metabolic Activation: RAT, LIVER, S-9, AROCLOR 1254 (10%), Method: PREINCUBATION
[5] = Test System: AMES SALMONELLA TYPHIMURIUM, Strain/Indicator: TA1535, Metabolic Activation: HAMSTER, LIVER, S-9, AROCLOR 1254 (10%), Method: PREINCUBATION
[6] = Test System: AMES SALMONELLA TYPHIMURIUM, Strain/Indicator: TA1535, Metabolic Activation: NONE, Method: PREINCUBATION
[7] = Test System: AMES SALMONELLA TYPHIMURIUM, Strain/Indicator: TA1535, Metabolic Activation: RAT, LIVER, S-9, AROCLOR 1254 (10%), Method: PREINCUBATION
[8] = Test System: AMES SALMONELLA TYPHIMURIUM, Strain/Indicator: TA1537, Metabolic Activation: NONE, Method: PREINCUBATION
[9] = Test System: AMES SALMONELLA TYPHIMURIUM, Strain/Indicator: TA100, Metabolic Activation: NONE, Method: STANDARD PLATE
[10] = Test System: AMES SALMONELLA TYPHIMURIUM, Strain/Indicator: TA98, Metabolic Activation: NONE, Method: STANDARD PLATE
[11] = Test System: AMES SALMONELLA TYPHIMURIUM, Strain/Indicator: TA98, Metabolic Activation: S-9, Method: STANDARD PLATE
[12] = Test System: AMES SALMONELLA TYPHIMURIUM, Strain/Indicator: TA100, Metabolic Activation: S-9, Method: STANDARD PLATE

`CC(C)N` was tested, and the mutagenic call (Test System: AMES SALMONELLA TYPHIMURIUM, Strain/Indicator: TA98, Metabolic Activation: HAMSTER, LIVER, S-9, AROCLOR 1254 (10%), Method: PREINCUBATION) was “inactive; negative”, the mutagenic call [1] was “inactive; negative” and the mutagenic call (Test System: AMES SALMONELLA TYPHIMURIUM, Strain/Indicator: TA98, Metabolic Activation: RAT, LIVER, S-9, AROCLOR 1254 (10%), Method: PREINCUBATION) was “inactive; negative”. For the same molecule, the mutagenic call [2] was “inactive; negative”, the mutagenic call [3] was “inactive; negative” and the mutagenic call [4] was “inactive; negative”. For the same molecule, the mutagenic call [5] was “inactive; negative”, the mutagenic call [6] was “inactive; negative” and the mutagenic call [7] was “inactive; negative”. For the same molecule, the mutagenic call (Test System: AMES SALMONELLA TYPHIMURIUM, Strain/Indicator: TA1537, Metabolic Activation: HAMSTER, LIVER, S-9, AROCLOR 1254 (10%), Method: PREINCUBATION) was “inactive; negative”, the mutagenic call [8] was “inactive; negative” and the mutagenic call (Test System: AMES SALMONELLA TYPHIMURIUM, Strain/Indicator: TA1537, Metabolic Activation: RAT, LIVER, S-9, AROCLOR 1254 (10%), Method: PREINCUBATION) was “inactive; negative”. The mutagenic call (Test System: UDS RODENT HEPATOCYTES, Strain/Indicator: THY INCORP (NON-S-PHASE), Metabolic Activation: NONE, Method: LIQUID SCINTILLATION COUNTING) was “inactive; negative”.

`ClC(Cl)(Cl)C1CO1` (stereo not drawn) was tested, and the mutagenic call [2] was “active; positive”, the mutagenic call [3] was “active; positive” and the mutagenic call [9] was “active; positive”. The mutagenic call [4] was “active; positive”, the mutagenic call (Test System: AMES SALMONELLA TYPHIMURIUM, Strain/Indicator: TA104, Metabolic Activation: NONE, Method: STANDARD PLATE) was “active; positive” and the mutagenic call [5] was “inactive; negative”. The mutagenic call [6] was “active; positive”, the mutagenic call [7] was “inactive; negative” and the mutagenic call (Test System: AMES SALMONELLA TYPHIMURIUM, Strain/Indicator: TA4001, Metabolic Activation: NONE, Method: STANDARD PLATE) was “active; positive”. The mutagenic call (Test System: AMES SALMONELLA TYPHIMURIUM, Strain/Indicator: TA4006, Metabolic Activation: NONE, Method: STANDARD PLATE) was “active; positive”.

With `CCCCl` the mutagenic call (End Point: In vitro micronucleus, Test System: Chinese Hamster Ovary (CHO-WBL) cells, Metabolic Activation: None) was “inactive; negative”.

`O=[N+]([O-])c1cccc2cccc([N+](=O)[O-])c12` was tested, and the mutagenic call (End Point: IN VITRO CHROMOSOMAL ABERRATIONS, Test System: CHL CELLS, Metabolic Activation: NONE) was “inactive; negative”, the mutagenic call (End Point: IN VITRO CHROMOSOMAL ABERRATIONS, Test System: CHL CELLS, Metabolic Activation: RAT, LIVER, S-9, SODIUM PHENOBARBITAL AND 5,6-BENZOFLAVONE) was “active; positive (structural changes)” and the mutagenic call (Test System: AMES SALMONELLA TYPHIMURIUM, Strain/Indicator: TA98, Metabolic Activation: HAMSTER, LIVER, S-9, AROCLOR 1254, FLAVIN MONONUCLEOTIDE, Method: PREINCUBATION) was “active; positive”. For the same molecule, the mutagenic call (Test System: AMES SALMONELLA TYPHIMURIUM, Strain/Indicator: TA98, Metabolic Activation: HAMSTER, LIVER, S-9, AROCLOR 1254, Method: PREINCUBATION) was “active; positive”, the mutagenic call [1] was “active; positive” and the mutagenic call (Test System: AMES SALMONELLA TYPHIMURIUM, Strain/Indicator: TA98, Metabolic Activation: RAT LIVER S-9, PHENOBARBITAL AND BETA-NAPHTHOFLAVONE, Method: PREINCUBATION) was “active; positive”. The mutagenic call (Test System: AMES SALMONELLA TYPHIMURIUM, Strain/Indicator: TA98, Metabolic Activation: RAT, LIVER, S-9, AROCLOR 1254, FLAVIN MONONUCLEOTIDE, Method: PREINCUBATION) was “active; positive”, the mutagenic call (Test System: AMES SALMONELLA TYPHIMURIUM, Strain/Indicator: TA98, Metabolic Activation: RAT, LIVER, S-9, AROCLOR 1254, Method: STANDARD PLATE) was “active; positive” and the mutagenic call [3] was “active; positive”. For the same molecule, the mutagenic call (Test System: AMES SALMONELLA TYPHIMURIUM, Strain/Indicator: TA100, Metabolic Activation: RAT LIVER S-9, PHENOBARBITAL AND BETA-NAPHTHOFLAVONE, Method: PREINCUBATION) was “active; positive”, the mutagenic call [6] was “inactive; negative” and the mutagenic call (Test System: AMES SALMONELLA TYPHIMURIUM, Strain/Indicator: TA1535, Metabolic Activation: RAT LIVER S-9, PHENOBARBITAL AND BETA-NAPHTHOFLAVONE, Method: PREINCUBATION) was “inactive; negative”. For the same molecule, the mutagenic call [8] was “active; positive”, the mutagenic call (Test System: AMES SALMONELLA TYPHIMURIUM, Strain/Indicator: TA1537, Metabolic Activation: RAT LIVER S-9, PHENOBARBITAL AND BETA-NAPHTHOFLAVONE, Method: PREINCUBATION) was “active; positive” and the mutagenic call (Test System: AMES SALMONELLA TYPHIMURIUM, Strain/Indicator: TA1538, Metabolic Activation: NONE, Method: PREINCUBATION) was “active; positive”. The mutagenic call (Test System: AMES SALMONELLA TYPHIMURIUM, Strain/Indicator: TA1538, Metabolic Activation: RAT LIVER S-9, PHENOBARBITAL AND BETA-NAPHTHOFLAVONE, Method: PREINCUBATION) was “active; positive”, the mutagenic call (Test System: E.COLI, Strain/Indicator: WP2UVRA, Metabolic Activation: NONE, Method: PREINCUBATION) was “inactive; negative” and the mutagenic call (Test System: E.COLI, Strain/Indicator: WP2UVRA, Metabolic Activation: RAT LIVER S-9, PHENOBARBITAL AND BETA-NAPHTHOFLAVONE, Method: PREINCUBATION) was “active; positive”.

`Cc1cccc2ccc3cc4ccccc4cc3c12` was tested, and the mutagenic call (Test System: AMES SALMONELLA TYPHIMURIUM, Strain/Indicator: TA100, Metabolic Activation: RAT, INTACT HEPATOCYTES, AROCLOR 1254, Method: PREINCUBATION) was “active; positive”, the mutagenic call (Test System: AMES SALMONELLA TYPHIMURIUM, Strain/Indicator: TA100, Metabolic Activation: RAT, NADPH-FORTIFIED HOMOGENIZED HEPATOCYTES, AROCLOR 1254, Method: PREINCUBATION) was “active; positive” and the mutagenic call (Test System: AMES SALMONELLA TYPHIMURIUM, Strain/Indicator: TA100, Metabolic Activation: RAT, SONICATED HEPATOCYTES, AROCLOR 1254, Method: PREINCUBATION) was “active; positive”.

In the case of `Cc1ccc(C=O)o1`, the mutagenic call [1] is reported as “inactive; negative”, the mutagenic call [10] is reported as “inactive; negative” and the mutagenic call (Test System: AMES SALMONELLA TYPHIMURIUM, Strain/Indicator: TA98, Metabolic Activation: RAT, LIVER, S-9, AROCLOR 1254, Method: PREINCUBATION) is reported as “inactive; negative”. For the same molecule, the mutagenic call [11] was “inactive; negative”, the mutagenic call [3] was “inactive; negative” and the mutagenic call [9] was “inactive; negative”. For the same molecule, the mutagenic call (Test System: AMES SALMONELLA TYPHIMURIUM, Strain/Indicator: TA100, Metabolic Activation: RAT, LIVER, S-9, AROCLOR 1254, Method: PREINCUBATION) was “inactive; negative”, the mutagenic call [12] was “inactive; negative” and the mutagenic call (Test System: AMES SALMONELLA TYPHIMURIUM, Strain/Indicator: TA102, Metabolic Activation: NONE, Method: PREINCUBATION) was “inactive; negative”. For the same molecule, the mutagenic call (Test System: AMES SALMONELLA TYPHIMURIUM, Strain/Indicator: TA102, Metabolic Activation: RAT, LIVER, S-9, AROCLOR 1254, Method: PREINCUBATION) was “inactive; negative”.

In the case of `COc1cccc(/C=C/c2ccc([N+](=O)[O-])cc2)c1`, the mutagenic call (Test System: AMES SALMONELLA TYPHIMURIUM, Strain/Indicator: TA98(NR), Metabolic Activation: NONE, Method: STANDARD PLATE) is reported as “active; positive”, the mutagenic call (Test System: AMES SALMONELLA TYPHIMURIUM, Strain/Indicator: TA98(NR), Metabolic Activation: S-9, Method: STANDARD PLATE) is reported as “active; positive” and the mutagenic call [10] is reported as “active; positive”. The mutagenic call [11] was “active; positive”, the mutagenic call (Test System: AMES SALMONELLA TYPHIMURIUM, Strain/Indicator: TA100 (NR), Metabolic Activation: NONE, Method: STANDARD PLATE) was “active; positive” and the mutagenic call (Test System: AMES SALMONELLA TYPHIMURIUM, Strain/Indicator: TA100 (NR), Metabolic Activation: S-9, Method: STANDARD PLATE) was “active; positive”. For the same molecule, the mutagenic call [9] was “active; positive” and the mutagenic call [12] was “active; positive”.
